Like-named read-outs stand apart in the source and are kept apart here.
Experiments:
[1] = for k RS: enantiomerization rate constant h-R-pio to h-S-pio / k SR: enantiomerization rate constant h-S-pio to h-R-pio: C57BL/6, mouse, 5 M (sic)
[2] = for k RS: enantiomerization rate constant h-R-pio to h-S-pio / k SR: enantiomerization rate constant h-S-pio to h-R-pio: 5 M (sic)
[3] = Body weight gain in male C57BL/6J mice on a standard diet; format: in vivo; details: twice daily oral gavage 11 days; overall daily dose h-rac-pio 30 mg/kg, d-S-pio 15 mg/kg, d-R-pio 15 mg/kg
Procedure: Male C57BL/6J mice (about 28 g body weight) were acclimated singly-housed for one week to a reverse light/dark cycle with free access to water and standard maintenance diet. Animals were then handled daily for one week followed by another 7 days of twice daily dosing with vehicle (0.5% methylcellulose in water) by oral gavage. […] Body weights were measured twice daily, prior to each dosing, to adjust individual dosing volumes to actual body weights.

C2C12 cells = assay: Mitochondrial respiration (mitochondrial stress test, maximal respiration) in C2C12 cells; format: cell-based; details: 30 µM for 15, 30, or 90 min, vs vehicle-treated cells; 10 mM sodium pyruvate
Text: […]. […] […].

db/db mice = assay: db/db mouse model of Type II diabetes, 10-day daily oral dosing; format: in vivo; details: oral daily 10 days, h-rac-pio 30 mg/kg; for decrease of cytokines IL-1p, IL-6, and TNF-α / decrease of serum amyloid A / effect on non-essential fatty acids (decrease compared with h-rac-pio) / effect on non-fasted blood glucose: d-R-pio 20 mg/kg; for effect on adiponectin / effect on non-essential fatty acids (decrease compared with h-rac-pio) / effect on non-fasted blood glucose: d-S-pio 20 mg/kg
Procedure: Quantitative results were analyzed by statistical methods using, as appropriate, one- or two-way ANOVA or Kruskal-Wallis tests for differences followed by Sidak's, Dunnett's, or Dunn's post-test to determine differences vs. vehicle-treated control animals. All graphs were generated with GraphPad Prism version 6.0.2 (GraphPad Software, Inc., La Jolla, Calif.).

[4] = molecular target: T1, human recombinant monoamine oxidase B (Homo sapiens, UniProt P27338); assay: Monoamine oxidase B (MAO-B) inhibition, luminescence; format: biochemical
T1 sequence (P27338 1-520): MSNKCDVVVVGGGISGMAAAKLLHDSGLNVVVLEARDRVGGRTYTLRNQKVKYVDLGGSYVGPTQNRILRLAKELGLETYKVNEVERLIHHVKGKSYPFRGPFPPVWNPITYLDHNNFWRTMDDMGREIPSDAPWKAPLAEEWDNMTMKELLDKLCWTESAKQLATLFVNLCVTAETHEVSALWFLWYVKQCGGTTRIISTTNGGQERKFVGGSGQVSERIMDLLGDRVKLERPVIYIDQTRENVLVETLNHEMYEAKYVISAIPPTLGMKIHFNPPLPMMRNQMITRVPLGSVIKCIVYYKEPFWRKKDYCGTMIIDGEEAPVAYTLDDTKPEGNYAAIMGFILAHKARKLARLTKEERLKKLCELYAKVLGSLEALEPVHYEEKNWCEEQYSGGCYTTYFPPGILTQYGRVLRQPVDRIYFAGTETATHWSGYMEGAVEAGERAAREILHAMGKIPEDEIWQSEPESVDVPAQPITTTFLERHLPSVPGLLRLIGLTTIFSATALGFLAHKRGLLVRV
Procedure: The mixtures were incubated at 22° C. for 5 min. Substrate (D-luciferin derivative) was added, and then the mixture was incubated at 37° C. for 60 min. The reaction was stopped by addition of the detection reagent containing luciferase. Luminescence was read after standing for 60 min at room temperature.
Results were expressed as a percentage of the luminescence of the control (enzyme+substrate). IC50 values were obtained by fitting experimental data (mean % luminescence as function of concentration) to the Hill equation with variable slope using non-linear regression analysis.

SMILES | k RS: enantiomerization rate constant h-R-pio to h-S-pio [1] [h⁻¹] | k SR: enantiomerization rate constant h-S-pio to h-R-pio [1] [h⁻¹] | k RS: enantiomerization rate constant h-R-pio to h-S-pio ([2]; human) [h⁻¹] | k SR: enantiomerization rate constant h-S-pio to h-R-pio ([2]; human) [h⁻¹] | percent body weight difference versus day 1, compared to vehicle [3] | effect on maximal respiration (oxygen consumption rate) (C2C12 cells) | decrease of cytokines IL-1p, IL-6, and TNF-α (db/db mice; vs vehicle) | decrease of serum amyloid A (db/db mice; vs vehicle) | effect on adiponectin (db/db mice; vs vehicle) | effect on non-essential fatty acids (decrease compared with h-rac-pio) (db/db mice) | effect on non-fasted blood glucose (db/db mice) | further results
[2H]C1(Cc2ccc(OCCc3ccc(CC)cn3)cc2)SC(=O)NC1=O (racemic) [d-rac-pio] |  |  |  |  |  |  |  |  |  |  |  | t1/2 of d-S-pio (k=kDSR+kDSS) ([1]; mouse, plasma): 36 min; t1/2 of h-R-pio (RS*) from averaged kRS ([1]; mouse, plasma): 54 min; t1/2 of h-S-pio (SR*) from averaged kSR ([1]; mouse, plasma): 45 min; t1/2 of h-R-pio (RS*) from averaged kRS ([2]; human, plasma): 96 min; t1/2 of h-S-pio (SR*) from averaged kSR ([2]; human, plasma): 96 min
CCc1ccc(CCOc2ccc(CC3SC(=O)NC3=O)cc2)nc1 (racemic) [h-rac-pio, rac-5-({p-[2-(5-Ethyl-2-pyridyl)ethoxy]phenyl}methyl)-1,3-thiazolidine-2,4-dione, reference compound] |  |  |  |  | statistically significant increase | inhibited maximal respiration | trending | statistically significant | significantly increased |  |  | effect on insulin (db/db mice; vs vehicle): significantly decreased
[2H][C@]1(Cc2ccc(OCCc3ccc(CC)cn3)cc2)SC(=O)NC1=O [d-R-pio, (R)-5-({p-[2-(5-Ethyl-2-pyridyl)ethoxy]phenyl}methyl)-(5-^2H)-1,3-thiazolidine-2,4-dione] |  |  |  |  | did not increase | inhibited maximal respiration | trending | statistically significant |  | a similar trend was observed | decreased non-fasted blood glucose to approximately the same extent as h-rac-pio | difference in inhibition efficacy between d-R-pio and d-S-pio [4]: greater than 5 fold
[2H][C@@]1(Cc2ccc(OCCc3ccc(CC)cn3)cc2)SC(=O)NC1=O [d-S-pio, (S)-5-({p-[2-(5-Ethyl-2-pyridyl)ethoxy]phenyl}methyl)-(5-^2H)-1,3-thiazolidine-2,4-dione] |  |  |  |  | statistically significant increase | no significant measurable effect |  |  | significantly increased | a similar trend was observed | decreased non-fasted blood glucose to approximately the same extent as h-rac-pio | half-life of d-S-pio compared with h-S-pio ([2]; plasma): approximately the same as the half-life for h-S-pio

More lines, main results first:

k RS: enantiomerization rate constant h-R-pio to h-S-pio [1] [h⁻¹] | k SR: enantiomerization rate constant h-S-pio to h-R-pio [1] [h⁻¹] | k RS: enantiomerization rate constant h-R-pio to h-S-pio ([2]; human) [h⁻¹] | k SR: enantiomerization rate constant h-S-pio to h-R-pio ([2]; human) [h⁻¹] | SMILES | percent body weight difference versus day 1, compared to vehicle [3] | effect on maximal respiration (oxygen consumption rate) (C2C12 cells) | decrease of cytokines IL-1p, IL-6, and TNF-α (db/db mice; vs vehicle) | decrease of serum amyloid A (db/db mice; vs vehicle) | effect on adiponectin (db/db mice; vs vehicle) | effect on non-essential fatty acids (decrease compared with h-rac-pio) (db/db mice) | effect on non-fasted blood glucose (db/db mice) | further results
0.694 | 0.867 | 0.447 | 0.439 | CCc1ccc(CCOc2ccc(C[C@H]3SC(=O)NC3=O)cc2)nc1 [h-R-pio] |  |  |  |  |  |  |  | 
0.792 | 0.979 | 0.434 | 0.427 | CCc1ccc(CCOc2ccc(C[C@@H]3SC(=O)NC3=O)cc2)nc1 [h-S-pio] |  |  |  |  |  |  |  | 

Source: US20200390753A1, “COMBINATION THERAPY USING ENANTIOPURE, OXY-SUBSTITUTED, DEUTERIUM-ENRICHED 5-(BENZYL)-5-DEUTERO-THIAZOLIDINE-2,4-DIONES FOR TREATMENT OF MEDICAL DISORDERS” (priority 2015, published 2020)
